The source of these data is patent publication US20130324522A1, “INSECT ODORANT RECEPTOR ANTAGONISTS” (THE ROCKEFELLER UNIVERSITY, priority 2010, published 2013).

One may read the inhibition as the percentage by which the read-out fell short of the control. As a reminder, the IC50 is the midpoint of a concentration-inhibition curve.

In experiment [1] the target is T1, Or47a/Or83b (Drosophila melanogaster, UniProt P81921+Q9VNB5).
T1 construct: Full-length cDNAs for mosquito (Anopheles gambiae) odorant receptor (OR1, OR2, OR7, OR8, OR28), and fly (Drosophila melanogaster) odorant receptor (Or47a, Or83b); expressed in transfected cells
T1 sequence (P81921 1-385): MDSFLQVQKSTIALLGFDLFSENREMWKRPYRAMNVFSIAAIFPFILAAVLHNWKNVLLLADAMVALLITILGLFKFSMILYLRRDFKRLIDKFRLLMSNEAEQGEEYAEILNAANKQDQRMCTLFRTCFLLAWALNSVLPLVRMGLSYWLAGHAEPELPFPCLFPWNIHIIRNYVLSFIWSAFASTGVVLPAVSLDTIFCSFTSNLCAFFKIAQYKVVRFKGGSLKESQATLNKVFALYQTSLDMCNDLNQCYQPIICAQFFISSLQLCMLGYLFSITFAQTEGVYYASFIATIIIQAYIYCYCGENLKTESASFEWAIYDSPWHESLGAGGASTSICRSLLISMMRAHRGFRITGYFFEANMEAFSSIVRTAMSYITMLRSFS
T1 sequence (Q9VNB5 1-486): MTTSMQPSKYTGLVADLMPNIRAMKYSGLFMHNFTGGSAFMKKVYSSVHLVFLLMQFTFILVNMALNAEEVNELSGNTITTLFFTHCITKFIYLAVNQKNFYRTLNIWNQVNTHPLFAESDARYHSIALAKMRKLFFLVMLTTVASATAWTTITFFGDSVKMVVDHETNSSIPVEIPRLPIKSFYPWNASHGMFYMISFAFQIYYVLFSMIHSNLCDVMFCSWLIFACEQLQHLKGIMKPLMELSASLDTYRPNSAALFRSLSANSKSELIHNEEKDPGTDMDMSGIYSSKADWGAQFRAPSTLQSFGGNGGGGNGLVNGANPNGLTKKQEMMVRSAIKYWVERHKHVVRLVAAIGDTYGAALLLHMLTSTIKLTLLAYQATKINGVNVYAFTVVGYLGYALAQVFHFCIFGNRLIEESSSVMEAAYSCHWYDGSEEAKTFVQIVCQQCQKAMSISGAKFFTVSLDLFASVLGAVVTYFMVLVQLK
Kind of experiment: Ca2+-imaging of stable Flip-In T-Rex cell line Or47a/Or83b. The following applies: for inhibition at 4 µM: compound applied at 4 μM, read-out: Percent Inhibition OR47a OR83b. Format: cell-based. The procedure: (§1) Full-length cDNAs for mosquito (Anopheles gambiae) odorant receptor (OR1, OR2, OR7, OR8, OR28), and fly (Drosophila melanogaster) odorant receptor (Or47a, Or83b), mouse TRP channel (TRPM8), and mouse serotonin receptor (5HT3) were obtained and subcloned into mammalian expression vectors. The following mammalian expression vectors were used:
(§2) Stable cell lines Or47a/Or83b and 5HT3 were generated from Flip-In T-Rex cells. Flip-In T-Rex-based cell lines were cultured in DMEM supplemented with these additional antibiotics: 6 μg/mL blasticidin and 100 μg/mL hygromycin.
(§3) Cells were trypsinized and split into 35 mm dishes 1 day before transfection. Confluent cells (60-70%) in 35 mm dishes were co-transfected with 1 μg of Or47a/Or83b plasmid in pcDNA5/FRT/TO/IRES plus the pOG44 plasmid or 1 μg of 5HT3 plasmid in pcDNA5/FRT/TO plus the pOG44 plasmid using lipofectamine 2000. Co-transfection of pOG44 and pcDNA5/FRT/TO/IRES or pcDNA5/FRT/TO allows expression of Flp recombinase and integration of the pcDNA5 plasmid into the genome via the FRT site. After one day of incubation, the transfected cells were transferred into 10 cm dishes with DMEM containing antibiotics: 20 μg/mL of hygromycin and 6 μg/mL of blasticidin. The concentration of Hygromycin was increased to 100 μg/mL when the population of cells became 30-40% confluent. The cells were cultured by changing medium every two days until cell clumps appeared. The clumps were picked and transferred into 96 well plates with DMEM containing 100 μg/mL of Hygromycin and 6 μg/mL of blasticidin. The cells were grown and transferred to 24 well plates, and ligand-evoked calcium increases were tested using the Hamamatsu FDSS6000 real time fluorescence plate reader.
(§4) Stable cell lines were cultured in 10 cm dishes, and confluent cells (70-80%) were trypsinized. 10,000 cells/20 μL were transferred into each well of 384-well plates coated with poly-D-lysine, and cultured for 2 days. For Flip-In T-Rex cells (cell lines expressing Or47a/Or83b and 5HT3), 5 μL of tetracycline (5 μg/mL) were added 1 day before the assay. 20 μL of Ca-4 dye was loaded into each well for 1.5 hr at room temperature in the dark, and the dye-loaded plates were subjected to Ca^2+-imaging using a Hamamatsu FDSS6000 real time fluorescence plate reader. Odorant solutions (9× final concentration) were prepared by dissolving 1M stock solutions into Hank's Buffered Salt Solution (HBSS), and 30 μL of odor solution was transferred to each well in 384-well plates.
(§5) Compounds ([…] in DMSO) were stored in 384-well plates, and last two columns (32 wells total) contained only DMSO. 200 nL of small compounds were transferred into the odorant plates before the assay using the Perkin-Elmer Janus workstation. The odorant plates were spun down to remove air bubbles, and placed on the FDSS6000 plate loader, and 5 μL of odorant solution was applied to the cell plate on the FDSS6000. Ca^2+ increase was monitored with fluorescence at 525 nm by excitation at 485 nm.

The target of experiment [2] is T2, serotonin receptor (5HT3) (Mus musculus, UniProt P23979).
T2 construct: Full-length cDNAs for mosquito (Anopheles gambiae) odorant receptor; expressed in transfected cells
T2 sequence (P23979 24-489): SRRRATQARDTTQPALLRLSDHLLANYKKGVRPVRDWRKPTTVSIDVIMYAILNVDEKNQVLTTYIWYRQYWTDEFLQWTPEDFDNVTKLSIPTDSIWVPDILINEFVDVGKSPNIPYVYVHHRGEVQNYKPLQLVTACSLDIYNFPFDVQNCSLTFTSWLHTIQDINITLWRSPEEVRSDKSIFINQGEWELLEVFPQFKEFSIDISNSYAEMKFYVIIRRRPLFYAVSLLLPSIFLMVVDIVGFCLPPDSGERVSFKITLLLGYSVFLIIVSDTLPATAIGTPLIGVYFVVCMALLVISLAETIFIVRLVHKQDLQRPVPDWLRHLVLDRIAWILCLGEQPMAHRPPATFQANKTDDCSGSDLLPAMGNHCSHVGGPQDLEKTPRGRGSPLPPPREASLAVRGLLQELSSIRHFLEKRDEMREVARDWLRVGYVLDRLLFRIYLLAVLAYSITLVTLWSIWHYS
Kind of experiment: Ca2+-imaging of stable Flip-In T-Rex cell line 5HT3. Format: cell-based. The conditions noted are these: for inhibition at 4 µM: compound applied at 4 μM, read-out: Percent Inhibition 5HT3. The procedure: as §1, §2, §3, §4, §5

Setting [3] is: ligand pentyl acetate 30 μM, read-out: IC50 OR47a OR83b.
The mark [4] stands for this setting: ligand serotonin 10 μM, read-out: IC50 5HT3.

SMILES strings stand for the structures. Read-outs that look alike come from different tables or passages of the source. Some results are limits rather than exact numbers.

As to `O=C(c1ccco1)N(Cc1nccn1Cc1c(F)cccc1Cl)C1CC1` [RU-0048046], the figures for the inhibition at 4 µM in experiment [1] and in experiment [2] were 26 to 50% and under 25%, respectively.

As to `O=C(NCCC(=O)N1CCOC(COCc2ccc(F)cc2Cl)C1)OCc1ccccc1` (centres unmarked) [RU-0050344], the inhibition at 4 µM was 26 to 50% in experiment [1] and under 25% in experiment [2].

As for `COc1cccc(-c2nnc(SCCCC(=O)N3CCN(C(=O)CC(C)(C)C)C(C)C3)n2-c2ccc(C)cc2)c1` (centres unmarked) [RU-0071818], the results for the inhibition at 4 µM in experiment [1] and in experiment [2] were 26 to 50% and under 25%, respectively.

For the molecule `Cc1ccccc1C(=O)N[C@@H]1CCCCC1NC(=O)C1CCCN(S(=O)(=O)c2cc(Cl)ccc2Cl)C1` (some centres unmarked) [RU-0045691], the inhibition at 4 µM in experiment [1] was 26 to 50%; in experiment [2] it was under 25%.

Regarding `CC(C)Nc1nc(Cl)nc(N(C)C(C)C)n1` [RU-T7], the IC50 in experiment [1] and in experiment [2] was over 20 µM in each case.

Consider `O=C(c1cccc(F)c1)N(Cc1c(-c2ccccc2)noc1N1CCCC1)CC1CCCO1` (centres unmarked) [RU-0037434], for which, in experiment [1] (Table B, read-out: IC50 OR47a), the IC50 was over 1 µM. Further, the inhibition at 4 µM was 51 to 74% in experiment [1] and 26 to 50% in experiment [2].

For the molecule `CCN(CC)c1onc(-c2ccccc2)c1CN(CC1CCCO1)C(=O)c1ccco1` (centres unmarked) [RU-0036855], the figures for the inhibition at 4 µM in experiment [1] and in experiment [2] were 26 to 50% and under 25%, respectively.

Regarding `O=C(C1CCCC1)N(Cc1nccn1CCc1c(F)cccc1Cl)C1CC1` [RU-I2], the figures for the IC50 in experiment [1] (setting [3]) and in experiment [2] (setting [4]) were under 2 µM and 2 to 20 µM, respectively.

In the case of `Cc1nc(NC(C)C)nc(NC(C)C)n1` [RU-T6], the IC50 in experiment [1] and in experiment [2] was over 20 µM each time.

For `CC(C)Nc1nc(Cl)nc(NC(C)C)n1` [RU-T1], the IC50 in experiment [1] (setting [3]) and in experiment [2] (setting [4]) was over 20 µM throughout.

Take `COc1ccccc1C(=O)C1CCCN(C(=O)c2cccc(N3CCOCC3)c2)C1` (centres unmarked) [RU-0029350]: in experiment [1] (Table B, read-out: IC50 OR47a), the IC50 is under 0.1 µM. Besides, the values for the inhibition at 4 µM in experiment [1] and in experiment [2] were 51 to 74% and under 25%, respectively.

In the case of `COCCN(Cc1nccn1Cc1c(F)cccc1Cl)C(=O)CCc1ccccc1` [RU-0058550], the inhibition at 4 µM in experiment [1] was 26 to 50%; in experiment [2] it was under 25%.

Regarding `C=CCOc1cccc(C(=O)N2CCCC(C(=O)c3ccccc3OC)C2)c1` (centres unmarked) [RU-0029409], the inhibition at 4 µM in experiment [1] was 51 to 74%; in experiment [2], under 25%.

For the molecule `CCc1c(C(=O)NCc2cccnc2)cnn1-c1ccccc1` [RU-0048504], the figures for the inhibition at 4 µM in experiment [1] and in experiment [2] were 26 to 50% and under 25%, respectively.

As for `CCNc1nc(NC(C)C)nc(SC)n1` [RU-T3], the figures for the IC50 in experiment [1] (setting [3]) and in experiment [2] (setting [4]) were 2 to 20 µM and 20 to 50 µM, respectively.
